The test system of data set [1] is Influenza A virus. The experiment in a line: Antiviral activity against Influenza A virus H1N1 (A/PR/8/34) infected in MDCK cells assessed as reduction in virus titer treated 1 hr post viral infection followed by replacement with fresh medium with compounds and measured after 72 hrs by MTT assay. To be noted: H1N1 A/PR/8/34, MDCK. The data set is classed as functional, organism-based. On the technique in general: Tetrazolium assays rely on reduction of a dye to a coloured formazan, in cell work by metabolically active cells.

Data set [2] is described as follows: Selectivity index, ratio of CC50 for cytotoxicity against dog MDCK cells to EC50 for antiviral activity against Influenza A virus H1N1 (A/PR/8/34) infected in MDCK cells assessed as reduction in virus titer treated 1 hr post viral infection followed by replacement with fresh medium with compounds and measured after 72 hrs by MTT assay. The data set is classed as toxicity, cell-based. Particulars: read-out: Selectivity Index.

Data set [3] deals with Influenza A virus. Briefly: Potency index, ratio of oseltamivir EC50 to test compound EC50 for antiviral activity against Influenza A virus H1N1 (A/PR/8/34) infected in MDCK cells assessed as reduction in virus titer treated 1 hr post viral infection followed by replacement with fresh medium with compounds and measured after 72 hrs by MTT assay. The data set is classed as functional.

Each structure is given as a SMILES string.

For `C#CC1(NC(=O)/C(C)=C/C(=O)OC[C@]23CC[C@@H](C(=C)C)[C@@H]2[C@H]2CC[C@@H]4[C@@]5(C)CC[C@H](O)C(C)(C)[C@@H]5CC[C@@]4(C)[C@]2(C)CC3)CCCCC1`, the EC50 with Influenza A virus [1] is 27.2 µM. For the same compound, the selectivity ratio at 72 h in data set [2] is 2. For the same compound, the “Ratio EC50” value in the data set on Influenza A virus [3] is given as 3.

As to `C=C(C)[C@@H]1CC[C@]2(COC(=O)CSCC(=O)O)CC[C@]3(C)[C@H](CC[C@@H]4[C@@]5(C)CC[C@H](O)C(C)(C)[C@@H]5CC[C@]43C)[C@@H]12`, in the data set with Influenza A virus [1], the EC50 is 21.1 µM. The selectivity ratio at 72 h in data set [2] was determined as 2. Also, the “Ratio EC50” value in the data set with Influenza A virus [3] was 3.

For the compound `CCOC(=O)C1=C[C@@H](OC(CC)CC)[C@H](NC(C)=O)[C@@H](N)C1` [OSELTAMIVIR], in the data set with Influenza A virus [1], the EC50 is 80.1 µM. Besides, the selectivity ratio at 72 h in data set [2] was 98.2.

As usually defined, the EC50 is the concentration giving half of the maximal effect.

The values above are taken from ChEMBL document CHEMBL4831514, “Novel betulin dicarboxylic acid ester derivatives as potent antiviral agents: Design, synthesis, biological evaluation, structure-activity relationship and in-silico study” (Eur J Med Chem, 2021).
